Assay results from US12195429B2, “Cannabinoid derivatives” (CANOPY GROWTH CORPORATION, priority 2019, dated 2025).

Experiments:
human CB1 receptor [1] = molecular target: T1, human CB1 receptor (Homo sapiens, UniProt P21554); experiment: CB1 radioligand competitive binding assay ([3H]CP 55,940 displacement); conditions: for Selectivity CB1: fold difference in binding affinity, CB1 over CB2, 1.00 = about the same affinity for both receptors
T1 construct: host or cells: CHO-K1

human CB2 receptor = molecular target: T2, human CB2 receptor (Homo sapiens, UniProt P34972); experiment: CB2 radioligand competitive binding assay ([3H]CP 55,940 displacement); conditions: for Selectivity CB2: fold difference in binding affinity, CB2 over CB1, 1.00 = about the same affinity for both receptors
T2 construct: host or cells: CHO-K1

human CB1 receptor [2] = molecular target: T1, human CB1 receptor; experiment: PathHunter β-arrestin functional assay, CB1 receptor, antagonist mode; type: cell-based
human CB1 receptor [3] = molecular target: T1, human CB1 receptor; experiment: PathHunter β-arrestin functional assay, CB1 receptor, agonist mode; type: cell-based; conditions: PathHunter CHO-K1 CNR1 β-arrestin cells; normalized to CP55,940
[4] = read-out: IC50 towards human CB1 receptor, antagonist mode

T1 sequence (P21554 whole entry): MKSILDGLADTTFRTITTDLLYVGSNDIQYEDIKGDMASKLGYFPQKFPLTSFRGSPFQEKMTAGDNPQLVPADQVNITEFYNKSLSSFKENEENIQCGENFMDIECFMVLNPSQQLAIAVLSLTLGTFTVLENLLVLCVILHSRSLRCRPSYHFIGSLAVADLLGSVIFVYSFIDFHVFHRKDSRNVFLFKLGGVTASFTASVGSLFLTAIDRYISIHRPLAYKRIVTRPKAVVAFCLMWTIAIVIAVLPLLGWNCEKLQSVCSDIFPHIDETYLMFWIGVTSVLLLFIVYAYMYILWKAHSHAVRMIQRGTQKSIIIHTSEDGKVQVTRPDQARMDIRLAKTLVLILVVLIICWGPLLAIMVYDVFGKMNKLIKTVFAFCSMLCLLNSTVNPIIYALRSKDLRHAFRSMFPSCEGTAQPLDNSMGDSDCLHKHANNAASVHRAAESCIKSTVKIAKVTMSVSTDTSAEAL
T2 sequence (P34972 whole entry): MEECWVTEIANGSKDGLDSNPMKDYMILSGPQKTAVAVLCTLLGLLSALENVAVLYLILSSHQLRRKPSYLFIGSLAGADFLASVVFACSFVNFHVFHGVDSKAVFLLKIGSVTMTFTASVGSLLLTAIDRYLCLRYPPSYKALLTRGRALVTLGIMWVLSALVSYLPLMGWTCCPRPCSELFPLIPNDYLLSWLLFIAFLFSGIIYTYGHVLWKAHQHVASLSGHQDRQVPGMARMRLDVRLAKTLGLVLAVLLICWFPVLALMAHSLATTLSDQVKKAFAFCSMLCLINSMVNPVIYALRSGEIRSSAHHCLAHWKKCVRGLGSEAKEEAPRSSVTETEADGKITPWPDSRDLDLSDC

CCCCCc1cc(OC)c(C2C=C(C)CCC2)c(OC)c1-c1cccnc1 (centres unmarked) [Compound 39c, 3-(2,6-dimethoxy-5′-methyl-4-pentyl-1′,2′,3′,4′-tetrahydro-[1,1′-biphenyl]-3-yl)pyridine]
IC50 (human CB1 receptor [1]): > 5 µM | IC50 (human CB2 receptor): > 5 µM | Selectivity CB2 (human CB2 receptor): 1.47 fold

CCCCCc1cc(OC)c(C2C=C(C)CCC2)c(OC)c1-c1cccc(N2CCOCC2)c1 (centres unmarked) [Compound 38c, 4-(2′,4′-dimethoxy-5″-methyl-6′-pentyl-1″,2″,3″,4″-tetrahydro-[1,1′:3′,1″-terphenyl]-3-yl)morpholine]
IC50 (human CB1 receptor [1]): < 0.5 µM | IC50 (human CB2 receptor): < 0.5 µM | Selectivity CB2 (human CB2 receptor): 19.05 fold

CCCCCc1cc(O)c(C2C=C(C)CCC2)c(O)c1-c1cccnc1 (centres unmarked) [Compound 12c, 5′-methyl-4-pentyl-3-(pyridin-3-yl)-1′,2′,3′,4′-tetrahydro-[1,1′-biphenyl]-2,6-diol]
IC50 (human CB1 receptor [1]): > 5 µM | IC50 (human CB2 receptor): 0.5 to 0.99 µM | Selectivity CB2 (human CB2 receptor): 7.27 fold

C=C(C)[C@@H]1CCC(C)=C[C@H]1c1c(O)cc(CCCCC)c(-c2cc3ccccc3s2)c1O [Compound 34d, 4-(benzothiophen-2-yl)-2-[6-isopropenyl-3-methyl-cyclohez-2-en-1-yl]-5-pentyl-benzene-1,3-diol]
IC50 (human CB1 receptor [2]; [4]): 1 to 3 µM | IC50 (human CB1 receptor [1]): 1 to 4.99 µM | activity towards the human CB1 receptor, agonist mode (human CB1 receptor [3]): minimal to no activity | IC50 (human CB2 receptor): < 0.5 µM | Selectivity CB2 (human CB2 receptor): 7.22 fold

C=C(C)[C@@H]1CCC(C)=C[C@H]1c1c(O)cc(CCCCC)c(-c2nnn[nH]2)c1O [Compound 3d, 5′-methyl-4-pentyl-2′-(prop-1-en-2-yl)-3-(1H-tetrazol-5-yl)-1′,2′,3′,4′-tetrahydro-[1,1′-biphenyl]-2,6-diol]
IC50 (human CB1 receptor [1]): 1 to 4.99 µM | Selectivity CB1 (human CB1 receptor [1]): 1.00 fold | IC50 (human CB2 receptor): 1 to 4.99 µM | Selectivity CB2 (human CB2 receptor): 1.00 fold

C=C(C)[C@@H]1CCC(C)=C[C@H]1c1c(O)cc(CCCCC)c(-c2cncnc2)c1O [Compound 13d, 5′-methyl-4-pentyl-2′-(prop-1-en-2-yl)-3-(pyrimidin-5-yl)-1′,2′,3′,4′-tetrahydro-[1,1′-biphenyl]-2,6-diol]
IC50 (human CB1 receptor [1]): 1 to 4.99 µM | IC50 (human CB2 receptor): 1 to 4.99 µM | Selectivity CB2 (human CB2 receptor): 2.35 fold

CCCCCc1cc(O)c(C2C=C(C)CCC2)c(O)c1-c1nnn[nH]1 (centres unmarked) [Compound 3c, 5′-methyl-4-pentyl-3-(1H-tetrazol-5-yl)-1′,2′,3′,4′-tetrahydro-[1,1′-biphenyl]-2,6-diol]
IC50 (human CB1 receptor [2]; [4]): 1 to 3 µM | IC50 (human CB1 receptor [1]): 1 to 4.99 µM | IC50 (human CB2 receptor): 1 to 4.99 µM

CCCCCc1cc(O)c(C2C=C(C)CCC2)c(O)c1-c1cncnc1 (centres unmarked) [Compound 13c, 5′-methyl-4-pentyl-3-(pyrimidin-5-yl)-1′,2′,3′,4′-tetrahydro-[1,1′-biphenyl]-2,6-diol]
IC50 (human CB1 receptor [1]): 1 to 4.99 µM | IC50 (human CB2 receptor): 1 to 4.99 µM

C=C(C)[C@@H]1CCC(C)=C[C@H]1c1c(O)cc(CCCCC)c(-c2cccs2)c1O [Compound 16d]
IC50 (human CB1 receptor [1]): 1 to 4.99 µM | IC50 (human CB2 receptor): < 0.5 µM | Selectivity CB2 (human CB2 receptor): 7.50 fold

C=C(C)[C@@H]1CCC(C)=C[C@H]1c1c(O)cc(CCCCC)c(-c2ccnn2C)c1O [Compound 33d, 5′-methyl-3-(1-methyl-1H-pyrazol-5-yl)-4-pentyl-2′-(prop-1-en-2-yl)-1′,2′,3′,4′-tetrahydro-[1,1′-biphenyl]-2,6-diol]
IC50 (human CB1 receptor [1]): 1 to 4.99 µM | Selectivity CB1 (human CB1 receptor [1]): 1.00 fold | IC50 (human CB2 receptor): 1 to 4.99 µM | Selectivity CB2 (human CB2 receptor): 1.00 fold

C=C(C)[C@@H]1CCC(C)=C[C@H]1c1c(O)cc(CCCCC)c(-c2c(C)noc2C)c1O [Compound 36d, 3-(3,5-dimethylisoxazol-4-yl)-5′-methyl-4-pentyl-2′-(prop-1-en-2-yl)-1′,2′,3′,4′-tetrahydro-[1,1′-biphenyl]-2,6-diol]
IC50 (human CB1 receptor [1]): 1 to 4.99 µM | Selectivity CB1 (human CB1 receptor [1]): 2.22 fold | IC50 (human CB2 receptor): 1 to 4.99 µM

C=C(C)[C@@H]1CCC(C)=C[C@H]1c1c(O)cc(CCCCC)c(-c2ccco2)c1O [Compound 15d, 3-(furan-2-yl)-5′-methyl-4-pentyl-2′-(prop-1-en-2-yl)-1′,2′,3′,4′-tetrahydro-[1,1′-biphenyl]-2,6-diol]
IC50 (human CB1 receptor [1]): > 5 µM | IC50 (human CB2 receptor): 1 to 4.99 µM | Selectivity CB2 (human CB2 receptor): 3.57 fold

C=C(C)[C@@H]1CCC(C)=C[C@H]1c1c(O)cc(CCCCC)c(-c2cccnc2)c1O [Compound 12d, 5′-methyl-4-pentyl-2′-(prop-1-en-2-yl)-3-(pyridin-3-yl)-1′,2′,3′,4′-tetrahydro-[1,1′-biphenyl]-2,6-diol]
IC50 (human CB1 receptor [1]): 1 to 4.99 µM | IC50 (human CB2 receptor): 1 to 4.99 µM | Selectivity CB2 (human CB2 receptor): 1.39 fold

C=C(C)[C@@H]1CCC(C)=C[C@H]1c1c(O)cc(CCCCC)c(-c2ccsc2)c1O [Compound 17d]
IC50 (human CB1 receptor [2]): 1 to 3 µM | IC50 (human CB1 receptor [1]): 1 to 4.99 µM | activity towards the human CB1 receptor, agonist mode (human CB1 receptor [3]): minimal to no activity | IC50 (human CB2 receptor): < 0.5 µM | Selectivity CB2 (human CB2 receptor): 33.33 fold

C=C(C)[C@@H]1CCC(C)=C[C@H]1c1c(O)cc(CCCCC)c(-c2cn[nH]c2)c1O [Compound 41d, 5′-methyl-4-pentyl-2′-(prop-1-en-2-yl)-3-(1H-pyrazol-4-yl)-1′,2′,3′,4′-tetrahydro-[1,1′-biphenyl]-2,6-diol]
IC50 (human CB1 receptor [1]): 1 to 4.99 µM | IC50 (human CB2 receptor): 1 to 4.99 µM | Selectivity CB2 (human CB2 receptor): 1.60 fold

CCCCCc1cc(O)c(C2C=C(C)CCC2)c(O)c1-c1ccsc1 (centres unmarked) [Compound 17c, 5′-methyl-4-pentyl-3-(thiophen-3-yl)-1′,2′,3′,4′-tetrahydro-[1,1′-biphenyl]-2,6-diol]
IC50 (human CB1 receptor [2]; [4]): 1 to 3 µM | IC50 (human CB1 receptor [1]): 1 to 4.99 µM | IC50 (human CB2 receptor): 1 to 4.99 µM

C=C(C)[C@@H]1CCC(C)=C[C@H]1c1c(O)cc(CCCCC)c(-c2ccnc(C)c2)c1O [Compound 35d, 2-(6-isopropenyl-3-methyl-cyclohex-2-en-1-yl)-4-(2-methyl-4-pyridyl)-5-pentyl-benzene-1,3-diol]
IC50 (human CB1 receptor [1]): 1 to 4.99 µM | IC50 (human CB2 receptor): 1 to 4.99 µM | Selectivity CB2 (human CB2 receptor): 1.60 fold

CCCCCc1cc(OC)c(C2C=C(C)CCC2)c(OC)c1-c1ccccc1 (centres unmarked) [Compound 40c, 2′,6′-dimethoxy-5-methyl-4′-pentyl-1,2,3,4-tetrahydro-1,1′:3′,1″-terphenyl]
IC50 (human CB1 receptor [1]): > 5 µM | IC50 (human CB2 receptor): 1 to 4.99 µM | Selectivity CB2 (human CB2 receptor): 1.79 fold

C=C(C)[C@@H]1CCC(C)=C[C@H]1c1c(O)cc(CCCCC)c(-c2ccncc2)c1O [Compound 14d, 5′-methyl-4-pentyl-2′-(prop-1-en-2-yl)-3-(pyridin-4-yl)-1′,2′,3′,4′-tetrahydro-[1,1′-biphenyl]-2,6-diol]
IC50 (human CB1 receptor [1]): 1 to 4.99 µM | Selectivity CB1 (human CB1 receptor [1]): 1.00 fold | IC50 (human CB2 receptor): 1 to 4.99 µM | Selectivity CB2 (human CB2 receptor): 1.00 fold

CCCCCc1cc(O)c(C2C=C(C)CCC2)c(O)c1-c1cccs1 (centres unmarked) [Compound 16c, 5′-methyl-4-pentyl-3-(thiophen-2-yl)-1′,2′,3′,4′-tetrahydro-[1,1′-biphenyl]-2,6-diol]
IC50 (human CB1 receptor [2]; [4]): 1 to 3 µM | IC50 (human CB1 receptor [1]): 1 to 4.99 µM | activity towards the human CB1 receptor, agonist mode (human CB1 receptor [3]): minimal to no activity | IC50 (human CB2 receptor): 0.5 to 0.99 µM | Selectivity CB2 (human CB2 receptor): 2.22 fold

CCCCCc1cc(O)c(C2C=C(C)CCC2)c(O)c1-c1ccco1 (centres unmarked) [Compound 15c, 3-(furan-2-yl)-5′-methyl-4-pentyl-1′,2′,3′,4′-tetrahydro-[1,1′-biphenyl]-2,6-diol]
IC50 (human CB1 receptor [2]; [4]): 1 to 3 µM | IC50 (human CB1 receptor [1]): 1 to 4.99 µM | IC50 (human CB2 receptor): 1 to 4.99 µM
